In ChEMBL document CHEMBL3046071, “Synthesis and microbial evaluation of novel N(1)-Arilidene-N(2)-t(3)-methyl-r(2),c(6)-diaryl-piperidin-4-one azine derivatives” (2006):
Converted amounts (≈) assume the structure as drawn.

Columns and labels:
Assay type in all cases: functional
[1] = test system: Aspergillus flavus; experiment: Antifungal activity against Aspergillus flavus
[2] = test system: Candida; experiment: Antifungal activity against Candida-6
[3] = test system: Staphylococcus aureus; experiment: Antibacterial activity against Staphylococcus aureus
[4] = test system: Bacillus subtilis; experiment: Antibacterial activity against Bacillus subtilis
[5] = test system: Candida; experiment: Antifungal activity against Candida-51
[6] = test system: Aspergillus niger; experiment: Antifungal activity against Aspergillus niger
[7] = test system: Pseudomonas aeruginosa; experiment: Antibacterial activity against Pseudomonas aeruginosa
[8] = test system: Escherichia coli; experiment: Antibacterial activity against Escherichia coli
[9] = test system: Enterococcus faecalis; experiment: Antibacterial activity against Enterococcus faecalis

| SMILES | MIC [1] [µg/mL] | MIC [2] [µg/mL] | MIC [3] [µg/mL] | MIC [4] [µg/mL] | MIC [5] [µg/mL] | MIC [6] [µg/mL] | MIC [7] [µg/mL] | MIC [8] [µg/mL] | MIC [9] [µg/mL] |
| --- | --- | --- | --- | --- | --- | --- | --- | --- | --- |
| CC1/C(=N/N)CC(c2ccco2)NC1c1ccco1 (stereo not given) | 100 (≈ 386 µM) | 100 (≈ 386 µM) | 100 (≈ 386 µM) | 100 (≈ 386 µM) | – | – | – | – | – |
| CC1/C(=N/N=C/c2ccccc2O)CC(c2ccccc2)NC1c1ccccc1 (stereo not given) | 100 (≈ 261 µM) | 50 (≈ 130 µM) | 50 (≈ 130 µM) | 50 (≈ 130 µM) | 25 (≈ 65.2 µM) | 100 (≈ 261 µM) | 50 (≈ 130 µM) | 100 (≈ 261 µM) | 50 (≈ 130 µM) |
| COc1ccc(/C=N/N=C2\CC(c3ccccc3)NC(c3ccccc3)C2C)cc1 (mixture of isomers) | 100 | 12.5 | 25 | 6.25 | 12.5 | 50 | 50 | 12.5 | 25 |
| CC1/C(=N/N)CC(c2ccccc2)NC1c1ccccc1 (stereo not given) | 100 (≈ 358 µM) | 100 (≈ 358 µM) | 100 (≈ 358 µM) | 100 (≈ 358 µM) | – | – | – | – | – |
| CC1/C(=N/N=C/c2ccccc2Cl)CC(c2ccco2)NC1c1ccco1 (stereo not given) | 50 (≈ 131 µM) | 12.5 (≈ 32.7 µM) | 25 (≈ 65.5 µM) | 6.25 (≈ 16.4 µM) | 12.5 (≈ 32.7 µM) | 25 (≈ 65.5 µM) | 25 (≈ 65.5 µM) | 12.5 (≈ 32.7 µM) | 25 (≈ 65.5 µM) |
| C/C(=N\N=C1/CC(c2ccccc2)NC(c2ccccc2)C1C)c1ccccc1 (mixture of isomers) | 100 | 25 | 50 | 12.5 | 50 | 50 | 25 | 12.5 | 25 |
| CN[C@@H]1[C@H](O[C@H]2[C@H](O[C@H]3[C@H](O)[C@@H](O)[C@H](N=C(N)N)[C@@H](O)[C@@H]3N=C(N)N)O[C@@H](C)[C@]2(O)C=O)O[C@@H](CO)[C@H](O)[C@H]1O [STREPTOMYCIN] | – | – | 25 (≈ 43 µM) | 12.5 (≈ 21.5 µM) | – | – | 25 (≈ 43 µM) | 12.5 (≈ 21.5 µM) | 50 (≈ 86 µM) |
| CC1/C(=N/N=C/c2ccco2)CC(c2ccccc2)NC1c1ccccc1 (stereo not given) | 50 (≈ 140 µM) | 12.5 (≈ 35 µM) | 12.5 (≈ 35 µM) | 12.5 (≈ 35 µM) | 12.5 (≈ 35 µM) | 12.5 (≈ 35 µM) | 50 (≈ 140 µM) | 25 (≈ 69.9 µM) | 50 (≈ 140 µM) |
| CC1/C(=N/N=C2\CC(c3ccccc3)NC(c3ccccc3)C2C)CC(c2ccccc2)NC1c1ccccc1 (mixture of isomers) | 100 | 50 | 100 | 100 | 100 | 100 | 100 | 50 | 100 |
| C[C@@H]1[C@H](O)[C@@H](C)/C=C/C=C/C=C/C=C/C=C/C=C/C=C/[C@H](O[C@@H]2O[C@H](C)[C@@H](O)[C@H](N)[C@@H]2O)C[C@@H]2O[C@](O)(C[C@@H](O)C[C@@H](O)[C@H](O)CC[C@@H](O)C[C@@H](O)CC(=O)O[C@H]1C)C[C@H](O)[C@H]2C(=O)O [AMPHOTERICIN B] | 50 (≈ 54.1 µM) | 25 (≈ 27.1 µM) | – | – | 25 (≈ 27.1 µM) | 50 (≈ 54.1 µM) | – | – | – |
| CC1/C(=N/N=C/c2ccccc2[N+](=O)[O-])CC(c2ccccc2)NC1c1ccccc1 (stereo not given) | 100 (≈ 242 µM) | 100 (≈ 242 µM) | 50 (≈ 121 µM) | 50 (≈ 121 µM) | 50 (≈ 121 µM) | 50 (≈ 121 µM) | 50 (≈ 121 µM) | 100 (≈ 242 µM) | 100 (≈ 242 µM) |
